One data set concerns mouse brain. The data set is described as follows: Safety of BBBO in mice (neurological deficits, MRI, histology). It is filed as in vivo. As for the experimental part: 273-285] in ImageJ. […] Subsequently, animals were sacrificed for further histological assessment.
In brief, each post-contrast image was first fitted into two Gaussian distributions, and the cutoff of signal intensity was determined. Data analysis and calculation of area fraction was performed using custom-written MATLAB scripts. 24 hours and 7 days after melittin treatment, animals were trans-cardially perfused with 5% sucrose in deionized water and then 4% paraformaldehyde in phosphate buffered saline. The brains were cryopreserved in 30% sucrose and cryo-sectioned in 30 μm slices. Primary antibodies used in the study are described in Table 2. Goat anti-rabbit Alexa Fluor-488 or Alexa Fluor-594 (1:250, Life Technologies) were used as secondary antibodies for fluorescence assessment using an inverted microscope (Zeiss, Axio Observer Z1). For demyelination assessment, eriochrome cyanine R staining was performed as described previously [Golubczyk, D., et al., Mol Neurobiol, 2019. 56(8): p. 5740-5748] with assessment using bright-field microscopy. Quantitation of immunohistochemistry (based on relative fluorescence intensity) and MRI analysis (based on intensity) were performed using Image J. For each mouse, three ROIs of the ipsilateral and contralateral BBBO regions were drawn, respectively.

The next data set concerns dhBMECs in microvessels. As to the kind of experiment: Analysis of cell behavior in tissue-engineered microvessels. In kind it is cell-based, human. The source says:
To monitor cell dynamics, cell loss and proliferation events were counted manually. Rates of cell loss (% h^−1), division (% h^−1), turnover (% h^−1), and cell loss at the site of a focal leak (%) were quantified from phase contrast imaging sequences, as reported previously. Briefly, the total number of endothelial cells was counted manually for each microvessel plane, utilizing a region approximately 100 μm wide corresponding to about a fifth of the channel circumference. Cell loss was identified by observing the removal of a cell from the microvessel. Cell loss from the monolayer occurred through two processes: (1) apoptotic loss, in which a cell constricts, releases its contents into the vessel lumen, which is then removed from the monolayer over a period of 20-60 minutes, and (2) non-apoptotic loss, in which a cell swells and disappears from the monolayer over a period of 2-6 minutes. Cell division was identified by observing cell compression, alignment of chromosomes, and the formation of daughter cells. The rate of turnover (% h^−1) is the difference between the rate of cell division and the rate of cell loss. A cell loss event was identified to be at the site of a focal leak if it occurred within <50 μm and <4 minutes of the occurrence of a focal leak. For a limited set of experiments, the WTC iPSC line [Kreitzer, F. R., et al., Am J Stem Cells, 2013. 2(2): p. 119-31] with GFP-tagged zona occludens-1 (Allen Cell Institute) was used to facilitate live-cell monitoring of tight junction organization.
Confocal z-stacks (0.4 μm in thickness) at 40× magnification were obtained on a swept field confocal microscope system (Prairie Technologies). Illumination was provided by an MLC 400 monolithic laser combiner (Keysight Technologies). Complete reconstruction of the microvessel lumen required approximately four hundred slices. Confocal imaging was conducted before, during, and after exposure to 50 μM·minute melittin treatment.

Data set [1] in a line: Solubility stated in text. In kind it is physicochemical. The settings on record: vs 1-10 μM.
In data set [2] the test system is 2D dhBMEC monolayers (ZO1). As to the kind of experiment: Immunocytochemistry of zona occludens-1 in 2D dhBMEC monolayers. In kind it is cell-based, human. As for the experimental part: Antibodies used in the study are described in Table 3. LabTek 8-chamber slides (Cat. No. 155411, Thermo Fisher Scientific) were coated with 25 μg mL^−1 fibronectin and 50 μg mL^−1 collagen IV overnight at 37° C. BC1 cell were seeded in BBB induction medium at 5×10^5 cells cm^−2. On day 1 after seeding, dhBMECs were washed twice with BBB maintenance medium and incubated in the medium overnight. On day 2, the cells were washed twice with BBB maintenance medium and treated with 1.5 μM, 5 μM, and 10 μM of melittin, diluted in the medium, for 2 minutes, 5 minutes, 10 minutes, or 90 minutes. The resulting melittin dosages, calculated as the product of melittin concentration and incubation time, were 3 μM·minutes, 25 μM·minutes, 100 μM minutes, and 450 μM·minutes. A negative control without melittin was included with every experiment. After the melittin incubation, the cells were washed twice with 1×PBS azide and fixed in 3.7% paraformaldehyde solution for 10 minutes or methanol for 15 minutes. The fixed cells were washed with 1×PBS azide and incubated in blocking solution (10% goat serum, 0.3% TritonX-100 in 1×PBS azide) at 4° C. for 1-2 days. The cells were incubated with primary antibodies for 2 hours at room temperature. […]

For `CC[C@H](C)[C@H](NC(=O)CN)C(=O)NCC(=O)N[C@@H](C)C(=O)N[C@H](C(=O)N[C@@H](CC(C)C)C(=O)N[C@@H](CCCCN)C(=O)N[C@H](C(=O)N[C@@H](CC(C)C)C(=O)N[C@H](C(=O)N[C@H](C(=O)NCC(=O)N[C@@H](CC(C)C)C(=O)N1CCC[C@H]1C(=O)N[C@@H](C)C(=O)N[C@@H](CC(C)C)C(=O)N[C@H](C(=O)N[C@@H](CO)C(=O)N[C@@H](Cc1c[nH]c2ccccc12)C(=O)N[C@H](C(=O)N[C@@H](CCCCN)C(=O)N[C@@H](CCCNC(=N)N)C(=O)N[C@@H](CCCCN)C(=O)N[C@@H](CCCNC(=N)N)C(=O)N[C@@H](CCC(N)=O)C(=O)N[C@@H](CCC(N)=O)C(N)=O)[C@@H](C)CC)[C@@H](C)CC)[C@@H](C)O)[C@@H](C)O)C(C)C)C(C)C` [melittin], the “long-term survival (30 days)” value in the data set on mouse brain (3 μM·minute) is “reached that endpoint without complications”. For the same molecule, in the data set on mouse brain (3 μM·minute, 11 mice), the mortality result is “One mouse in this group died within 12 hours” and the “neurological deficits (paralysis, seizure, or rotation)” value was “all animals except one woke up from anesthesia without apparent neurological deficits”. In the data set on mouse brain (3 μM·minute, 24 hours), the “GFAP, Iba1, NeuN, and caspase-3 intensities between hemispheres” value is “not statistically different”; the “MRI (T2, SWI)” value is reported as “no evidence of edema or inflammation on T2 scans or micro-hemorrhages on susceptibility weighted imaging (SWI) scans”. In the data set on mouse brain (3 μM·minute, 7 days), the “GFAP and Iba1 intensity, ipsilateral vs contralateral” value was “no statistically significant differences”; the MRI result is recorded as “no abnormalities were detected”; the “NeuN and caspase-3 intensity in the ipsilateral hemisphere” value is listed as “no statistically significant change”. In addition, the “eriochrome cyanine staining (myelin)” value in the data set with mouse brain (3 μM·minute, 7 days, hippocampus) is “normal myelin”. Besides, the behavior after dosing entry with mouse brain (5 μM·minute) is “mice displayed rotational behavior indicating neurological damage”. For the same molecule, the cell division rate entry in the data set on dhBMECs in microvessels (across melittin doses 3-100 μM·minute) is listed as “about 1 % h^−1”. Also, in the data set with dhBMECs in microvessels (doses 3-100 μM·minute), the “cell loss rate following melittin exposure” value is on record as “dose-dependent” and the “turnover of dhBMECs (division rate minus loss rate)” value is “negative”. The “cell response, GFP-tagged ZO1 dhBMEC microvessels” value with dhBMECs in microvessels (high melittin doses (100 μM·min)) is listed as “cells contracted”. For the same molecule, in data set [1], the “solubility relative to the concentrations for membrane activity” value is recorded as “more than 30 fold”. In addition, the monolayer integrity entry in data set [2] (450 μM·minute dose) is on record as “significant cell detachment was observed”. Moreover, the “ZO1 protein expression compared to controls” value in data set [2] (doses of 3-100 μM·minute) was “did not result in large changes”.

The values above are taken from patent US20240009269A1 (priority 2020, published 2024).
